Columns and labels:
[1] = tested on: human breast cancer cell line HCC70; test: Antitumor test in model with transplanted breast cancer cell line HCC70 (Example 3); assay type: in vivo, female nude mouse
Description: The mice were grouped 18 days after transplantation when their average tumor volume became about 165 mm^3. […] ABS buffer was administered to a Vehicle administration group. Six mice per group were used in all the groups.

[2] = tested on: bladder cancer PDX model (NIBIO-K071); test: Antitumor test in bladder cancer patient-derived xenograft model NIBIO-K071; assay type: in vivo, female nude mice
Excerpt: NIBIO-[…] was obtained as a bladder cancer patient-derived xenograft model (PDX model) from the National Institute of Biomedical Innovation. A frozen tumor section of NIBIO-[…] was thawed and subcutaneously transplanted to 4- to 6-week old female NSG mice (NOD. Cg-Prkdc Il2rg<tm1Wjl>/SzJ: purchased from Charles River Laboratories Japan, Inc.) using a trocar. Grown tumor was collected, cut into small pieces, and transplanted again to female NSG mice or female nude mice (CAnN. Cg-Foxn1nu/CrlCrlj: purchased from Charles River Laboratories Japan, Inc.) using a trocar, followed by extended growth. TA-MUC1-, Nectin-4-, and TROP2-positive findings were confirmed in the tumor of this model by immunohistochemical staining (IHC). An estimated tumor volume (ETV) was calculated as described below. Estimated tumor volume (volume,mm^3)=Major axis (mm)×Minor axis (mm)^2/2 The female nude mice with transplanted NIBIO-[…] were grouped 25 days after transplantation when their average tumor volume became about 200 mm^3. […] ABS buffer was administered to a Vehicle administration group. Six mice per group were used in all the groups. After initial administration, body weights and tumor sizes were measured twice a week, and estimated tumor volumes were calculated.

[3] = tested on: lung cancer PDX model (NIBIO-NS1); test: Antitumor test in lung cancer patient-derived xenograft model NIBIO-NS1; assay type: in vivo, female nude mice
Excerpt: NIBIO-NS1 was obtained as a lung cancer PDX model from the National Institute of Biomedical Innovation. A frozen tumor section of NIBIO-NS1 was thawed and subcutaneously transplanted to 5-week old female NSG mice (NOD. Cg-Prkdc Il2rg<tm1Wjl>/SzJ: purchased from Jackson Laboratory Japan, Inc.) using a trocar. Grown tumor was collected, cut into small pieces, and transplanted again to female nude mice (CAnN. Cg-Foxn1nu/CrlCrlj: purchased from Jackson Laboratory Japan, Inc.) using a trocar, followed by extended growth.
The female nude mice with transplanted NIBIO-NS1 were grouped 10 days after transplantation when their average tumor volume became about 157 mm^3. […] Six mice per group were used in groups 1 and 2, and 12 mice were used in group 3.

[4] = 10 mg/kg, QW × two doses (Days 0, 7)
[5] = Day 21, 10 mg/kg, QW × 2, intravenous

sacituzumab govitecan [TROP2-SN38 ADC, reference compound]
tumor regression [1, 4]: no tumor regression | ETV (mm^3) Mean [1, 5]: 361 mm^3 | tumor regression [2, 4]: did not reach tumor regression | ETV (mm^3) Mean [2, 5]: 383 mm^3

enfortumab vedotin [Nectin-4-MMAE ADC, reference compound]
tumor regression ([2]; 3 mg/kg, QW × three doses (Days 0, 7, 14)): did not reach tumor regression | ETV (mm^3) Mean ([2]; Day 21, 3 mg/kg, QW × 3, intravenous): 772 mm^3

datopotamab deruxtecan [TROP2-DXd ADC, reference compound]
tumor course after regrouping of the TROP2-DXd ADC administration group ([3]; 10 mg/kg on Day 11 to tumors pre-treated with TROP2-DXd ADC, up to Day 31 (TA-MUC1-DXd ADC) or Day 21 (TROP2-DXd ADC)): grew continuously | tumor regression effect ([3]; Day 11, 10 mg/kg on Day 0, NIBIO-NS1): no tumor regression | ETV (mm^3) Mean ([3]; Day 11, 10 mg/kg, Day 0, intravenous, NIBIO-NS1): 453 mm^3
